Measurements as given in patent publication US5070210A, “Novel ketenimines as intermediates for insecticides” (ICI Americas Inc., priority 1990, dated 1991).

Legend:
Type in all cases: in vivo
[1] = system: Housefly [Musca domestica]; assay: Housefly insecticidal test; conditions: μg per 25 female flies; mortality after 48 hours
Procedure, shortened: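 Dose range started at 100 μg per 25 female flies and went downward. Insects (1-2 days old) contacted a dried acetone/peanut-oil deposit in dishes; LC50 values come from dosage-mortality curves at 48 h.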

[2] = system: Tobacco Budworm [Heliothis virescens (Fabricius)] larvae; assay: Tobacco budworm contact test; conditions: second-instar larvae, percent in solution, 5 days
Experimental: The compounds in Tables 1 and 2 above were tested for insecticidal activity using the following testing procedures. LC50 values, based on the results of these tests and calculated according to dosage-mortality curves, are expressed in Table 3.
Tobacco Budworm [Heliothis virescens (Fabricius)]:
(a) Contact: Test compounds were diluted in a 50-50 acetone-water solution. Cotton (Gossypium sp.) cotyledons were immersed in the test solutions for 2-3 seconds and placed on a wire screen to dry. The dried leaves were placed in petri dishes containing a moistened piece of filter paper and infested with 5 second-instar tobacco budworm larvae. The dishes were placed in a high humidity chamber for 5 days, and percent mortality of the larvae recorded. Test concentrations ranged from 0.1% downward. The LC-50 values are expressed below in Table 3 under the heading "TBW-C" in terms of percent of the test compound in the solution.

[3] = system: Tobacco Budworm [Heliothis virescens (Fabricius)] eggs; assay: Tobacco budworm egg test; conditions: 2-day old eggs, percent in solution
Procedure, shortened: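 Paper towel patches bearing 2-day old eggs were dipped in acetone solutions of compound, then set in petri dishes over larval rearing medium at 78° F. Mortality was scored once all control eggs had hatched and larvae were feeding. LC50, from dosage-mortality curves, is given as percent compound in solution.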

[4] = system: Cabbage Looper [Trichoplusia ni (Hubner)]; assay: Cabbage looper insecticidal test; conditions: second-instar larvae, percent in solution; 3-5 days
Procedure, shortened: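 Compounds in 50-50 acetone-water were applied by dipping squash cotyledons (about 1×1.5 in) for 2-3 s; dried leaves went into petri dishes on moist filter paper with 5 second-instar larvae under high humidity. Mortality was scored after 3-5 days; LC50 from dosage-mortality curves, as percent compound in solution.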

[5] = system: Aster Leafhopper [Macrosteles fascifrens (Stal)]; assay: Aster leafhopper insecticidal test; conditions: adults/nymphs, percent in solution; 48 hours
Procedure, shortened: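 Three ~10 cm oat seedlings per cup were dipped 2-3 seconds in 50-50 acetone-water compound solutions, dried, and caged with ten adult/nymph leafhoppers. Mortality was counted after 48 hours at concentrations from 0.05% downward. LC50, as percent compound in solution, came from dosage-mortality curves.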

[6] = system: Maize weevil [Sitophilus Zeamais (Motschulsky)]; assay: Maize weevil insecticidal test; conditions: adult weevils, percent in solution; 48 hours
Procedure, shortened: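 LC50, in percent of compound in solution, was derived from dosage-mortality curves after 48 h at about 25 °C. Ten adult weevils per container fed on four corn seeds briefly immersed in acetone:water (50:50) solutions of up to 0.01% and dried.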

| SMILES | LC50, HF [1] [µg] | LC50, TBW, C (TBW-C) [2] [%] | LC50, TBW, E (TBW-E) [3] [%] | LC50, CL [4] [%] | LC50, LH [5] [%] | LC50, MW [6] [%] |
| --- | --- | --- | --- | --- | --- | --- |
| ClC(Cl)C(=Nc1ccccc1)OCc1cccc(Oc2ccccc2)c1 [Compound 41] | 4.5 | 0.0035 | 0.04 | 0.015 | – | – |
| Fc1ccc(N=C(OCc2cccc(Oc3ccccc3)c2)C(Cl)Cl)cc1 [Compound 44] | 3 | < 0.1 | 0.06 | – | – | – |
| Cc1c(F)cccc1N=C(OCc1cccc(Oc2ccccc2)c1)C(C)C [Compound 73] | 25 | 0.005 | 0.025 | 0.004 | – | – |
| Cc1ccc(F)cc1N=C(OCc1cccc(Oc2ccccc2)c1)C(C)C [Compound 74] | 25 | 0.0025 | 0.025 | 0.005 | – | – |
| COc1ccc(N=C(OCc2cccc(Oc3ccccc3)c2)C(C)C)cc1Cl [Compound 95] | 10 | 0.004 | 0.025 | 0.0025 | – | – |
| Cc1cc(Cl)ccc1N=C(OCc1cccc(Oc2ccccc2)c1)C(C)C [Compound 96] | 35 | 0.0025 | 0.025 | 0.003 | – | – |
| CC(C)(C)c1ccc(N=C(OCc2cccc(Oc3ccccc3)c2)C(Cl)Cl)cc1 [Compound 140] | > 100 | > 0.1 | > 0.1 | < 0.1 | – | – |
| COc1ccc(N=C(OCc2cccc(Oc3ccccc3)c2)C(C)C)c(OC)c1 [Compound 146] | 40 | 0.025 | > 0.1 | 0.017 | – | – |
| CC(=O)c1ccc(N=C(OCc2cccc(Oc3ccccc3)c2)C(C)C)cc1 [Compound 147] | 10 | 0.0075 | > 0.1 | 0.01 | – | – |
| CC(C)C(=Nc1ccc2c(c1)OCO2)OCc1cc(Oc2ccc(F)cc2)ccn1 [Compound 515] | 28 | – | > 0.1 | 0.0015 | > 0.05 | > 0.01 |
| CC(C)C(=Nc1ccc(F)c(Cl)c1)OCc1cc(Oc2ccc(Cl)cc2)ccn1 [Compound 516] | > 100 | – | > 0.1 | 0.008 | > 0.05 | > 0.01 |
| CC(C)C(=Nc1cccc(C(F)(F)F)c1)OCc1ccnc(Oc2ccc(Cl)cc2)c1 [Compound 517] | 80 | – | 0.04 | 0.0008 | > 0.05 | > 0.01 |
| CC(C)C(=Nc1cccc(C(F)(F)F)c1)OCc1cccc(Oc2ccc(Cl)cn2)c1 [Compound 518] | > 100 | – | > 0.1 | 0.00075 | > 0.05 | > 0.01 |
| C#CC(OC(=Nc1cccc(C(F)(F)F)c1)C(C)C)c1cccc(Oc2ccccc2)c1 (centres unmarked) [Compound 519] | 60 | – | > 0.1 | 0.0037 | > 0.05 | > 0.01 |
| CCC(=Nc1ccc(F)c(F)c1)OCc1coc(Cc2ccccc2)c1 [Compound 524] | 5.2 | – | > 0.1 | > 0.1 | > 0.05 | > 0.01 |
| CC(C)(C)C(=Nc1ccc(F)c(F)c1)OCc1coc(Cc2ccccc2)c1 [Compound 525] | > 100 | – | > 0.1 | < 0.1 | > 0.05 | > 0.01 |
| CC(=Nc1ccc(F)c(F)c1)OCc1coc(Cc2ccccc2)c1 [Compound 526] | 8.3 | – | > 0.1 | > 0.1 | > 0.05 | > 0.01 |

| SMILES | LC50, HF [1] [µg] | LC50, TBW, C (TBW-C) [2] [%] | LC50, TBW, E (TBW-E) [3] [%] | LC50, CL [4] [%] | LC50, LH [5] [%] | LC50, MW [6] [%] |
| --- | --- | --- | --- | --- | --- | --- |
| CC(C)C(=Nc1ccc(F)c(Cl)c1)OCc1cccc(Oc2ccc(Cl)cn2)c1 [Compound 527] | 47 | – | 0.035 | 0.00065 | > 0.05 | > 0.01 |
| CC(C)C(=Nc1ccc2c(c1)OCO2)OCc1cccc(Oc2ccc(Cl)cn2)c1 [Compound 532] | > 100 | – | > 0.1 | < 0.1 | > 0.05 | > 0.01 |
| C#CC(OC(=Nc1ccc(F)c(Cl)c1)C(C)C)c1cccc(Oc2ccccc2)c1 (centres unmarked) [Compound 533, N-(3-chloro-4-fluorophenyl)-O-[1-(3-phenoxyphenyl)-2-propyn-1-yl]isobutyrimidate] | 60 | – | > 0.1 | > 0.1 | > 0.05 | > 0.01 |
| CC(C)C(=Nc1ccc(F)c(Cl)c1)OCC#CCOc1ccccc1 [Compound 534] | > 100 | – | > 0.1 | < 0.1 | > 0.05 | > 0.01 |
| CC(C)C(=Nc1ccc(C(F)(F)F)cc1)OCc1cccc(Cc2ccccc2)c1 [Compound 535] | 41 | – | > 0.1 | > 0.1 | > 0.05 | > 0.01 |
| Cc1c(COC(=Nc2ccc(C(C)(C)C)cc2)C(C)C)cccc1-c1ccccc1 [Compound 536] | > 100 | – | > 0.1 | < 0.1 | > 0.05 | > 0.01 |
| CC(C)C(=Nc1ccc(F)c(Cl)c1)OCc1cccc(Cc2ccccc2)c1 [Compound 537] | 20 | – | > 0.1 | > 0.1 | > 0.05 | > 0.01 |
| CC(C)C(=Nc1ccc(OC(F)(F)F)cc1)OCc1cccc(Cc2ccccc2)c1 [Compound 538] | 75 | – | > 0.1 | > 0.1 | > 0.05 | > 0.01 |
| CC(C)C(=Nc1ccc([N+](=O)[O-])cc1)OCc1coc(Cc2ccccc2)c1 [Compound 539] | 22 | – | > 0.1 | > 0.1 | > 0.05 | > 0.01 |
| CC(C)C(=Nc1ccc2c(c1)OCO2)OCc1ccnc(Oc2ccccc2)c1 [Compound 540] | > 100 | – | > 0.1 | < 0.1 | > 0.05 | > 0.01 |
| COCc1c(F)c(F)c(COC(=Nc2ccc(C(C)(C)C)cc2)C(C)C)c(F)c1F [Compound 544] | > 100 | – | > 0.1 | > 0.1 | > 0.05 | > 0.01 |
| Cc1cccc(N=C(OCc2cccc(Oc3ccc(Cl)cc3)n2)C(C)C)c1 [Compound 545] | < 100 | – | > 0.1 | > 0.1 | > 0.05 | > 0.01 |
| C#CCc1c(F)c(F)c(COC(=Nc2cccc(C(F)(F)F)c2)C(C)C)c(F)c1F [Compound 546] | < 100 | – | > 0.1 | 0.0001 | < 0.05 | 0.0032 |
| C#CCc1c(F)c(F)c(COC(=Nc2ccc3c(c2)OCO3)C(C)C)c(F)c1F [Compound 547] | < 100 | – | 0.05 | 0.0005 | < 0.05 | > 0.01 |
| CC(C)C(=Nc1cccc(C(F)(F)F)c1)OCC#CCOc1ccccc1 [Compound 548] | > 100 | – | > 0.1 | < 0.1 | > 0.05 | > 0.01 |
| CC(C)C(=Nc1ccc(F)c(Cl)c1)OCc1cccc(Oc2ccccn2)c1 [Compound 549] | < 100 | – | > 0.1 | > 0.1 | > 0.05 | > 0.01 |
